Assay: xn = mol fraction of the nth substance listed
Settings: 100 kPa

CCCC[n+]1ccn(C)c1.O=S(=O)([O-])C(F)(F)F + CCCC[n+]1ccn(C)c1.F[P-](F)(F)(F)(F)F
viscosity [mPa·s]
Settings | 293.15 K | 298.15 K | 303.15 K | 308.15 K | 313.15 K | 318.15 K | 323.15 K | 328.15 K
x2 = 0 | 90.8 | 76 | – | 51.7 | 42.11 | 35.18 | 30.02 | 26.6
x2 = 0.0005 | 90.9 | 76 | – | 51.8 | – | 35.2 | – | 26.61
x2 = 0.0006 | 90.9 | 76.1 | 63.6 | 51.8 | – | – | – | 26.61
x2 = 0.0007 | 90.9 | – | 63.6 | 51.8 | 42.14 | 35.2 | 30.03 | 26.61
x2 = 0.0009 | 90.9 | 76.1 | 63.7 | 51.8 | – | 35.21 | 30.04 | 26.61
x2 = 0.0018 | 91 | – | 63.7 | 51.8 | 42.17 | – | 30.05 | 26.62
x2 = 0.0061 | – | 76.5 | 64 | 52 | 42.34 | 35.36 | 30.15 | 26.71
x2 = 0.01 | 91.9 | 76.9 | 64.3 | 52.2 | 42.5 | 35.49 | 30.24 | 26.79
x2 = 0.0501 | 96.7 | 80.5 | 67.1 | 54.4 | 44.11 | 36.73 | 31.17 | 27.59
x2 = 0.0806 | 100.4 | – | – | 56.1 | 45.35 | 37.69 | 32.03 | 28.27
x2 = 0.1 | 102.9 | 85.3 | – | 57.1 | 46.2 | 38.32 | 32.53 | 28.7
x2 = 0.15 | – | 90.4 | 74.7 | – | 48.4 | – | 33.86 | –
x2 = 0.1999 | – | 95.8 | 78.8 | – | – | – | 35.27 | –
x2 = 0.3 | 132.1 | 107.5 | 87.8 | 69.7 | 55.5 | – | – | 33.41
x2 = 0.3999 | 149.7 | 120.7 | 97.7 | 77 | 60.9 | 49.6 | 41.49 | 36.06
x2 = 0.5002 | 169.7 | 135.6 | 108.9 | 85.2 | – | 54.1 | 45 | 38.95
x2 = 0.6 | 192.3 | 152.2 | 121.3 | 94.1 | 73.3 | 58.9 | 48.8 | 42.02
x2 = 0.7 | – | 170.9 | 135.1 | 104 | 80.4 | 64.2 | 52.9 | 45.35
x2 = 0.7995 | 247 | 191.8 | 150.3 | 114.8 | – | 70 | 57.4 | 48.9
x2 = 0.8997 | 280 | 215 | 167.5 | 126.9 | 96.7 | – | – | 52.8

CCCC[n+]1ccn(C)c1.F[P-](F)(F)(F)(F)F + CCCC[n+]1ccn(C)c1.O=S(=O)([O-])C(F)(F)F
x1 = 1
Settings | viscosity [mPa·s]
293.15 K | 337
298.15 K | 257
303.15 K | 197.6
308.15 K | 148.3
313.15 K | 112
323.15 K | 71
328.15 K | 59.7

Reference: a compilation of properties of binary mixtures (doi:10.1016/j.molliq.2017.08.019)
